Counter-ions that a name gives are not always drawn.
Key:
Type in all cases: cell-based
[1] = tested on: SH-SY5Y (human neuroblastoma) cells; assay: Cell viability, Cell Titer Glo 2.0 assay; conditions: read-out: Viability SHSY5Y.3 GI50
Method in brief: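 CellTiter-Glo 2.0 luminescence read-out after 72 h compound exposure (37 °C, 5% CO2); medium-only wells as blank. DMSO 0.1% final.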

HTT mRNA [2] = assay: Gene panel canonical junction qPCR assay, decrease in CJ mRNA, Table 3; conditions: decrease in canonical junction (CJ) mRNA, gene panel qPCR, Table 3
Method in brief: (§1)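 Cells: A673 or K562; 24 h compound exposure, 37 °C, 5% CO2; 11-pt 3-fold series from 10 uM final; DMSO ≤0.25%. Lysate → cDNA → qPCR with junction-spanning primers/probe for CJ transcript. ΔCt vs housekeeper, ΔΔCt vs DMSO, 2^(−ΔΔCt), % response, 4PL → IC50.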

MYB mRNA [3] = assay: as above; conditions: decrease in canonical junction (CJ) mRNA, gene panel qPCR, Table 3
Method in brief: as §1

SMN2 mRNA = assay: as above; conditions: decrease in canonical junction (CJ) mRNA, gene panel qPCR, Table 3
Method in brief: as §1

HTT mRNA [4] = assay: Splicing RT-qPCR assay, canonical (CJ) and alternative (AJ) junction mRNA, K562 cells; conditions: Homo sapiens, K562.3 cells, 24 hours; for AC50: read-out: HTT AJ (AC50, increase in AJ mRNA); for IC50: read-out: HTT CJ (IC50, decrease in CJ mRNA)
Experimental: (§2) Compounds described herein were used to modulate RNA transcript abundance in cells. The expression of a target mRNA was measured by detecting the formation of an exon-exon junction in the canonical transcript (CJ). A compound mediated exon-inclusion event was detected by observing an increase in formation of a new junction with an alternative exon (AJ). Real-time qPCR assays were used to detect these splicing switches and interrogate the potency of various compounds towards different target genes. A high-throughput real time quantitative PCR (RT-qPCR) assay was developed to measure these two isoforms of the mRNA (CJ and AJ) for exemplary genes, such as HTT, SMN2, and MYB, together with a control housekeeping gene, GAPDH or GUSB or PPIA, used for normalization. Briefly, the A673 or K562 cell line was treated with various compounds described herein (e.g., compounds of Formula (I)). After treatment, the levels of the HTT, MYB, or SMN2 mRNA targets were determined from each sample of cell lysate by cDNA synthesis followed by qPCR.
(§3) • Cells-to-CT 1-step kit: ThermoFisher A25602, Cells-to-CT lysis reagent: ThermoFisher 4391851C, TaqMan™ Fast Virus 1-Step Master Mix: ThermoFisher 4444436 • GAPDH: VIC-PL, ThermoFisher 4326317E (Assay: Hs99999905_m1)—used for K562/suspension cell lines • GUSB: VIC-PL, ThermoFisher 4326320E (Assay: Hs99999908_m1)—used for K562/suspension cell lines • PPIA: VIC-PL, ThermoFisher 4326316E (Assay: Hs99999904_m1)—used for A673/adherent cell lines
(§4) The K562 cell line was cultured in IMDM with 10% FBS. For K562, cells were diluted with full growth media and plated in either a 96-well plate (50,000 cells in 50 uL media per well) or a 384-well plate (8,000-40,000 cells in 45 uL media per well). An 11-point 3-fold serial dilution of the compounds were made in DMSO then diluted in media in an intermediate plate. Compound was transferred from the intermediate plate to the cell plate with the top dose at a final concentration of 10 uM in the well. Final DMSO concentration was kept at or below 0.25%. Final volume was 100 uL for 96-well plate and 50 uL for 384-well plate. The cell plate was then placed in an incubator at 37° C. with 5% CO2 for 24 hours.
(§5) The cells were then gently washed with 50 uL-100 uL cold PBS before proceeding to addition of lysis buffer. 30 uL-50 uL of room temperature lysis buffer with DNAse I (and optionally RNAsin) was added to each well. Cells were shaken/mixed thoroughly at room temperature for 5-10 minutes for lysis to take place and then 3 uL-5 uL of room temperature stop solution was added and wells were shaken/mixed again. After 2-5 minutes, the cell lysate plate was transferred to ice for RT-qPCR reaction setup. The lysates could also be frozen at −80° C. for later use.
(§6) In some cases, a direct lysis buffer was used. An appropriate volume of 3× lysis buffer (10 mM Tris, 150 mM NaCl, 1.5%-2.5% Igepal and 0.1-1 U/uL RNAsin, pH 7.4) was directly added to either K562 or A673 cells in media and mixed by pipetting 3 times. The plates were then incubated at room temperature with shaking/rocking for 20-50 minutes to allow for lysis to take place. After this time, the cell lysate plate was transferred to ice to set up for the RT-qPCR reactions. The lysates could also be frozen at −80° C. for later use.
(§7) To set up 10 uL RT-qPCR reactions, cell lysates were transferred to 384-well qPCR plates containing the master mix according to the table below. The plates were sealed, gently vortexed, and spun down before the run. The volumes were adjusted accordingly in some instances where the reaction was carried in 20 uL. The table below summarizes the components of the RT-qPCR reactions:
(§8) The RT-qPCR reaction was performed using a QuantStudio (ThermoFisher) under the following fast cycling conditions. All samples and standards were analyzed at least in duplicate. In some instances, bulk room temperature (RT) step of 5-10 minutes was completed for all plates before proceeding with qPCR. […]

MYB mRNA [5] = assay: as above; conditions: Homo sapiens, K562.3 cells, 24 hours; for AC50: read-out: MYB AJ (AC50, increase in AJ mRNA); for IC50: read-out: MYB CJ (IC50, decrease in CJ mRNA)
Experimental: as §2, §3, §4, §5, §6, §7, §8

MYB mRNA [6] = assay: Splicing RT-qPCR assay (THP), Table 2A; conditions: Table 2A (THP); for AC50: AJ mRNA increase, read-out: MYB AJ (increase in alternative junction mRNA, AC50); for IC50: CJ mRNA decrease, read-out: MYB CJ (decrease in canonical junction mRNA, IC50)
HTT mRNA [7] = assay: Splicing RT-qPCR assay (THP), Table 2A; conditions: Table 2A (THP); for AC50: AJ mRNA increase, read-out: HTT AJ (increase in alternative junction mRNA, AC50); for IC50: CJ mRNA decrease, read-out: HTT CJ (decrease in canonical junction mRNA, IC50)

SMILES | GI50 [1] | IC50 (HTT mRNA [2]) | IC50 (MYB mRNA [3]) | IC50 (SMN2 mRNA) | AC50 (HTT mRNA [4]) | IC50 (HTT mRNA [4]) | AC50 (MYB mRNA [5]) | IC50 (MYB mRNA [5]) | AC50 (MYB mRNA [6]) | IC50 (MYB mRNA [6]) | AC50 (HTT mRNA [7]) | IC50 (HTT mRNA [7])
Cc1cn2cc(NC(=O)c3ccc(N4CC[C@@H]5CNCC[C@@H]54)c4cn(C)nc34)cc(F)c2n1 (stereo in doubt) [Compound 101, N-(8-fluoro-2-methyl-imidazo[1,2-a]-pyridin-6-yl)-2-methyl-4-(octahydro-pyrrolo[3,2-c]-pyridin-1-yl)indazole-7-carboxamide hydrochloride] | 1 to 10 µM | 1 to 10 µM | 0.1 to 1 µM | < 0.1 µM | 1 to 10 µM | 1 to 10 µM | 0.1 to 1 µM | 0.1 to 1 µM | – | – | – | –
Cc1cn2cc(NC(=O)c3ccc(N4CCC5NCCCC54)c4cn(C)nc34)cc(F)c2n1 (stereo not shown) [Compound 100, N-(8-fluoro-2-methylimidazo[1,2-a]pyridin-6-yl)-2-methyl-4-(octahydropyrrolo[3,2-b]pyridin-1-yl)indazole-7-carboxamide] | 1 to 10 µM | 1 to 10 µM | 0.1 to 1 µM | < 0.1 µM | 1 to 10 µM | 1 to 10 µM | 0.1 to 1 µM | 0.1 to 1 µM | – | – | – | –
CN[C@@H]1CN(c2ccc(C(=O)Nc3cc(F)c4nc(C)cn4c3)c3nn(C)cc23)C[C@H]1C [Compound 107, N-(8-fluoro-2-methyl-imidazo[1,2-a]pyridin-6-yl)-2-methyl-4-[(3R,4S)-3-methyl-4-(methylamino)pyrrolidin-1-yl]indazole-7-carboxamide] | 1 to 10 µM | 1 to 10 µM | 0.1 to 1 µM | < 0.1 µM | > 10 µM | 1 to 10 µM | 0.1 to 1 µM | 0.1 to 1 µM | – | – | – | –
CCNC1CCN(c2cc(F)c(C(=O)Nc3cc4c(C)nc(C)cn4n3)c3nn(C)cc23)CC1 [Compound 302, N-(4,6-dimethylpyrazolo [1,5-a]pyrazin-2-yl)-4-[4-(ethylamino)-1-piperidyl]-6-fluoro-2-methyl-indazole-7-carboxamide] | > 10 µM | > 10 µM | > 10 µM | > 10 µM | – | – | – | – | > 10 µM | > 10 µM | > 10 µM | > 10 µM
CCNC1CCN(c2ccc(C(=O)Nc3cc(F)c4cnccc4c3)c3nn(C)cc23)CC1 [Compound 303, 4-[4-(ethylamino)-1-piperidyl]-N-(8-fluoro-6-isoquinolyl)-2-methylindazole-7-carboxamide] | 1 to 10 µM | > 10 µM | > 10 µM | > 10 µM | – | – | – | – | > 10 µM | > 10 µM | > 10 µM | > 10 µM
CCNC1CCN(c2cc(F)c(C(=O)Nc3cn4cc(C5CC5)nc4c(F)c3OC)c3nn(C)cc23)CC1 [Compound 304, N-(2-cyclopropyl-8-fluoro-7-methoxyimidazo [1,2-a]pyridin-6-yl)-4-[4-(ethylamino)-piperidin-1-yl]-6-fluoro-2-methylindazole-7-carboxamide] | 1 to 10 µM | > 10 µM | > 10 µM | 0.1 to 1 µM | – | – | – | – | > 10 µM | > 10 µM | > 10 µM | > 10 µM
CCNC1CCN(c2cc(F)c(C(=O)Nc3cn4c(C)c(C)nc4c(F)c3OC)c3nn(C)cc23)CC1 [Compound 305, 4-[4-(ethylamino)piperidin-1-yl]-6-fluoro-N-(8-fluoro-7-methoxy-2,3-dimethyl-imidazo[1,2-a]pyridin-6-yl)-2-methylindazole-7-carboxamide] | > 10 µM | > 10 µM | > 10 µM | > 10 µM | – | – | – | – | > 10 µM | > 10 µM | > 10 µM | > 10 µM
CCNC1CCN(c2cc(F)c(C(=O)Nc3cn4cc(C)nc(C)c4n3)c3nn(C)cc23)CC1 [Compound 306, N-(6,8-dimethylimidazo[1,2-a]pyrazin-2-yl)-4-(4-(ethylamino)-piperidin-1-y1)-6-fluoro-2-methyl-2H-indazole-7-carboxamide 2,2,2-trifluoroacetate] | 1 to 10 µM | > 10 µM | < 0.1 µM | < 0.1 µM | – | – | – | – | < 0.1 µM | < 0.1 µM | 1 to 10 µM | > 10 µM
CCNC1CCN(c2ccc(C(=O)Nc3cc(C#N)c4nc(C)cn4c3)c3nn(C)cc23)CC1 [Compound 307, N-(8-cyano-2-methyl-imidazo[1,2-a]pyridin-6-yl)-4-[4-(ethylamino)-1-piperidyl]-2-methyl-indazole-7-carboxamide] | 1 to 10 µM | 1 to 10 µM | 0.1 to 1 µM | < 0.1 µM | – | – | – | – | 0.1 to 1 µM | 0.1 to 1 µM | 1 to 10 µM | 1 to 10 µM
CCNC1CCN(c2cc(F)c(C(=O)Nc3cn4c(Cl)c(C)nc4c(F)c3OC)c3nn(C)cc23)CC1 [Compound 308, N-(3-chloro-8-fluoro-7-methoxy-2-methyl-imidazo [1,2-a]pyridin-6-yl)-4-[4-(ethylamino)-1-piperidyl]-6-fluoro-2-methyl-indazole-7-carboxamide] | 1 to 10 µM | > 10 µM | > 10 µM | 0.1 to 1 µM | – | – | – | – | > 10 µM | > 10 µM | > 10 µM | > 10 µM
CCNC1CCN(c2ccc(C(=O)Nc3cn4cc(C5CC5)nc(C)c4n3)c3nn(C)cc23)CC1 [Compound 309, N-(6-cyclopropyl-8-methylimidazo[1,2-a]-pyrazin-2-yl)-4-[4-(ethylamino)-1-piperidyl]-2-methyl-indazole-7-carboxamide] | > 10 µM | > 10 µM | > 10 µM | > 10 µM | – | – | – | – | > 10 µM | > 10 µM | > 10 µM | > 10 µM

Reference: patent US20260285853A1, “COMPOUNDS AND METHODS FOR MODULATING SPLICING” (REMIX THERAPEUTICS INC., priority 2023, published 2026)
